pIC50: −log10 of the molar value.
Experiments:
[1] = system: BaF3 (EGFR Del19/T790M/C797S); assay: Cell proliferation IC50 assay (Cell Titer GLO), BaF3 DTC cells; assay type: cell-based; conditions: Mus musculus, Ba/F3 EGFR-Del19/T790M/C797S, Table 5, 72 h
How it was run: (§1)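 Cells plated at 2000-4000 per well, next day given serially diluted compound, then grown 72 h at 37 °C, 5% CO2. Viability by CellTiter-Glo luminescence versus DMSO control; IC50 from growth-inhibition curves.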

BaF3 patent = assay: Cell proliferation IC50 assay (Cell Titer GLO), BaF3 parental cells; assay type: cell-based; conditions: Mus musculus, Table 5, 10 ng/ml mIL3, 72 h
How it was run: as §1

LT = assay: Cell proliferation IC50 assay (Cell Titer GLO), LT cells; assay type: cell-based; conditions: Mus musculus; Table 7; LT cells (BaF3 with EGFR mutant), 72 h
Procedure: (§2) IC50 of compounds in the present invention was determined by Cell Titer GLO reagent from Promega. The procedures are as follows:
(§3) Tumor cells were cultured in specified medium in an incubator at 37° C. and 5% CO2. The cells were passaged periodically. Cells at the logarithmic growth phase were collected for plating at a density of 2000-4000 cells/well. The next day, the compounds of the present invention were serially diluted and added to the cells, with DMSO being the negative control and the culture media without cells being the blank control. The plate was incubated in the incubator for 72 h. The cell viability assay was performed by adding the detection reagents to the cell culture media according to Cell Titer GLO reagent instructions and detecting luminescent signals on an EnVision microplate reader (PerkinElmer).
(§4) Inhibition of cell growth by the compounds of the present invention was plotted by Prism Graphpad software for statistically calculating the IC50 of the compound of the present invention.

[2] = system: BaF3 (EGFR L858R/T790M/C797S); assay: Cell proliferation IC50 assay (Cell Titer GLO), BaF3 LTC cells; assay type: cell-based; conditions: Mus musculus, Ba/F3 EGFR, Table 5, 72 h
How it was run: as §1

A431 = assay: Cell proliferation IC50 assay (Cell Titer GLO), A431 cells; assay type: cell-based; conditions: Homo sapiens, A-431; Table 5; A431, 72 h; read-out: A431 IC50
How it was run: as §1

BaF3 (EGFR L858R) = BaF3 (EGFR L858R) (Homo sapiens, UniProt P00533, L858R, cells depend on it); assay: Cell proliferation IC50 assay (Cell Titer GLO), BaF3 L cells; assay type: cell-based, mouse; conditions: Table 7, 72 h
Sequence of BaF3 (EGFR L858R) (P00533 whole entry L858R): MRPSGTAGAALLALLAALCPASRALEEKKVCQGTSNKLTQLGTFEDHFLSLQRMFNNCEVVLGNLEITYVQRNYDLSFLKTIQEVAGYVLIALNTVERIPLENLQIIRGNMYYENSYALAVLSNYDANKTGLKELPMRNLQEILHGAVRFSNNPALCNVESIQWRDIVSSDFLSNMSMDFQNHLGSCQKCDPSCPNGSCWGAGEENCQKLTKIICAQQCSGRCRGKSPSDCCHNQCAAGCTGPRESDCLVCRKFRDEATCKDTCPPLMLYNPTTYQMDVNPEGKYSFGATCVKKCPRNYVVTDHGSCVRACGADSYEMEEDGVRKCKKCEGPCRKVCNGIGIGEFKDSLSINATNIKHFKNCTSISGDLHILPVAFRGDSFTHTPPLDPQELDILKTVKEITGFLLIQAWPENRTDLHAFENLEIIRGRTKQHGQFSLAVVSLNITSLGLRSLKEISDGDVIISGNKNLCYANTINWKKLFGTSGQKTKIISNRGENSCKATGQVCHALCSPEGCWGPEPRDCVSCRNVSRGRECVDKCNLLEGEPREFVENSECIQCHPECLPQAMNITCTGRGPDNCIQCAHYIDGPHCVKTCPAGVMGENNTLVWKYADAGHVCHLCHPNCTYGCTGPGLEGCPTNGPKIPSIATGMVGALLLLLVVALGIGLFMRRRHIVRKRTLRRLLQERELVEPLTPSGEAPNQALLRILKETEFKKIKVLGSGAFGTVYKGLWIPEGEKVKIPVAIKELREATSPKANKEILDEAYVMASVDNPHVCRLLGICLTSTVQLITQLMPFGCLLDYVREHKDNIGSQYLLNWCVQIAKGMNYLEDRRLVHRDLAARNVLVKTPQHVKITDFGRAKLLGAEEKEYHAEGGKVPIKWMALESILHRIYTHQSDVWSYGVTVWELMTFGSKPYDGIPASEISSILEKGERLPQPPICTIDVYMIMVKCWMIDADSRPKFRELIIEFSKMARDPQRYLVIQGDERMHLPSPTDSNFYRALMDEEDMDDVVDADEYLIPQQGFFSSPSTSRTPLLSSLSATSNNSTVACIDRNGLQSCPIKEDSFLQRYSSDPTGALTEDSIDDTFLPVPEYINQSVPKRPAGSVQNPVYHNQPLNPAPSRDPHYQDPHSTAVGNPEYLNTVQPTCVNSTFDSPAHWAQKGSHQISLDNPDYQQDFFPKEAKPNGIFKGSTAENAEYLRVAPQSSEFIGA
Procedure: as §2, §3, §4

DT = assay: Cell proliferation IC50 assay (Cell Titer GLO), DT cells; assay type: cell-based; conditions: Mus musculus; Table 7; DT cells (BaF3 with EGFR mutant), 72 h
Procedure: as §2, §3, §4

BaF3 (EGFR Del19/C797S) = target: T1, BaF3 (EGFR Del19/C797S) (Homo sapiens, UniProt P00533, C797S, cells depend on it, form not given); assay: Cell proliferation IC50 assay (Cell Titer GLO), BaF3 DC cells; assay type: cell-based, mouse; conditions: Table 7, 72 h
T1 construct: BaF3 (EGFR Del19/C797S)|DC|RPMI1640 + 10% FBS
T1 sequence (P00533 with tags, fused parts or gaps DEL746-750/C797S, form open): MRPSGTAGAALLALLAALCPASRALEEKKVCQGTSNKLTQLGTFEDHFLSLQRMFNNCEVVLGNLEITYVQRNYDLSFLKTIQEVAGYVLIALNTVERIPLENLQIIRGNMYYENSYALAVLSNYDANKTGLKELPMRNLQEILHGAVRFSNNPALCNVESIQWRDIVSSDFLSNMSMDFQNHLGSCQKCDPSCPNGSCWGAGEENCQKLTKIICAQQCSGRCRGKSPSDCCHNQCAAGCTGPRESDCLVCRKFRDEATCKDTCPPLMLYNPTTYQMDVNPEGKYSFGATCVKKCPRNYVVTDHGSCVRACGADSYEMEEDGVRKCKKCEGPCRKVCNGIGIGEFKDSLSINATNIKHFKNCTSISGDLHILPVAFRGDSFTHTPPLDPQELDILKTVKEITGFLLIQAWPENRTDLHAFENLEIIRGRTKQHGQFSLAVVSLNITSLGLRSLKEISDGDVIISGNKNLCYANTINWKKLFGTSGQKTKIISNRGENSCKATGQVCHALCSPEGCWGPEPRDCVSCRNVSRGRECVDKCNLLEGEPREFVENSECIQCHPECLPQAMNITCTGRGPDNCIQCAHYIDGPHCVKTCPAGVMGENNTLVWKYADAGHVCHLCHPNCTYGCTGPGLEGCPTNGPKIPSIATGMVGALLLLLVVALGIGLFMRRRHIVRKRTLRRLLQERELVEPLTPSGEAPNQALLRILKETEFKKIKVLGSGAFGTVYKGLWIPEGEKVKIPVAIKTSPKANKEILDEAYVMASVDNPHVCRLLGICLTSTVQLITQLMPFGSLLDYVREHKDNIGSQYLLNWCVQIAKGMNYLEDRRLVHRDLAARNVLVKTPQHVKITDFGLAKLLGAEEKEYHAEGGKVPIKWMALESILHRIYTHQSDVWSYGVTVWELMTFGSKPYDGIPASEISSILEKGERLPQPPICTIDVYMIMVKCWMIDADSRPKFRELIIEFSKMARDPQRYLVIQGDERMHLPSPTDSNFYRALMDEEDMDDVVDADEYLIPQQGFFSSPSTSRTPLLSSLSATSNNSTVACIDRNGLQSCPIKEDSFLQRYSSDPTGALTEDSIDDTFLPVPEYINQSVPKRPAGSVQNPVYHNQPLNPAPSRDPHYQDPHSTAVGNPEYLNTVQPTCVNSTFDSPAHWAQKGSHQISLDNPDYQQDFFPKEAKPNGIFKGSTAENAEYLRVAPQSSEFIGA
How it was run: as §1

BaF3 (EGFR L858R/C797S) = BaF3 (EGFR L858R/C797S) (Homo sapiens, UniProt P00533, C797S/L858R, cells depend on it); assay: Cell proliferation IC50 assay (Cell Titer GLO), BaF3 LC cells; assay type: cell-based, mouse; conditions: Table 7, 72 h
Sequence of BaF3 (EGFR L858R/C797S) (P00533 whole entry C797S/L858R): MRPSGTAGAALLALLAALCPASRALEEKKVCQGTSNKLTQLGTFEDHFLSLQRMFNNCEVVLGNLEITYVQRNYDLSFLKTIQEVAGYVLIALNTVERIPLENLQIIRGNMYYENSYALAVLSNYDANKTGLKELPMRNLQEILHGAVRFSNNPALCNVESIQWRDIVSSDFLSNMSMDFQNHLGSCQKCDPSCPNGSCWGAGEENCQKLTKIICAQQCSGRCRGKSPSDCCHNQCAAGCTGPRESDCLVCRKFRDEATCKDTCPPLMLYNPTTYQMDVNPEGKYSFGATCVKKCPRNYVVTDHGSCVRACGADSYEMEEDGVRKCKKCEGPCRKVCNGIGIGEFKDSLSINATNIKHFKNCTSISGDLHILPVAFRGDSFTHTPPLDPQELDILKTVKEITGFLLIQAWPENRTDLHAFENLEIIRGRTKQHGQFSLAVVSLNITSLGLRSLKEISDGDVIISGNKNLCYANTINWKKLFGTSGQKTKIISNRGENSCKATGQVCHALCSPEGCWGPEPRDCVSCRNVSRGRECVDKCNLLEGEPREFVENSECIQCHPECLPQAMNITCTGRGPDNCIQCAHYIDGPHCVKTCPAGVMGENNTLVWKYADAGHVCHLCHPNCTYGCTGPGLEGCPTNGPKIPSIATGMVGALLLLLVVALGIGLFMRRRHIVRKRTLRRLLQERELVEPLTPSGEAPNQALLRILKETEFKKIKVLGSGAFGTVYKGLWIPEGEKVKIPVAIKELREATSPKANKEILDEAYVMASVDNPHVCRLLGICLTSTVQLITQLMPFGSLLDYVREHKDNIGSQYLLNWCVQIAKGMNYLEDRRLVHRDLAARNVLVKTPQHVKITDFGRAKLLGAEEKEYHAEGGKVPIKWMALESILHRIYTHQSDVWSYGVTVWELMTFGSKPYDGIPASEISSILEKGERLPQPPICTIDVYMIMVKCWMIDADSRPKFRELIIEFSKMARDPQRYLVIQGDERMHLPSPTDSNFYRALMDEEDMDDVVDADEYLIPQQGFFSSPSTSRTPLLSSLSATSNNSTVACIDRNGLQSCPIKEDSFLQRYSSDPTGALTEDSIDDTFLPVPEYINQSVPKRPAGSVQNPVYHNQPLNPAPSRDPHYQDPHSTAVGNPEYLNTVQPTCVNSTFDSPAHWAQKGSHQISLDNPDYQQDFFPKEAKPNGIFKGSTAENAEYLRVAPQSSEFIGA
Procedure: as §2, §3, §4

BaF3 (EGFR WT) = assay: Cell proliferation IC50 assay (Cell Titer GLO), BaF3 WT cells; assay type: cell-based; conditions: Mus musculus, Ba/F3 EGFR, Table 5, 10 ng/ml EGF, 72 h
How it was run: as §1

BaF3 (EGFR Del19) = BaF3 (EGFR Del19) (Homo sapiens, UniProt P00533, cells depend on it, form not given); assay: Cell proliferation IC50 assay (Cell Titer GLO), BaF3 D cells; assay type: cell-based, mouse; conditions: Table 7, 72 h
Sequence of BaF3 (EGFR Del19) (P00533 with tags, fused parts or gaps DEL746-750): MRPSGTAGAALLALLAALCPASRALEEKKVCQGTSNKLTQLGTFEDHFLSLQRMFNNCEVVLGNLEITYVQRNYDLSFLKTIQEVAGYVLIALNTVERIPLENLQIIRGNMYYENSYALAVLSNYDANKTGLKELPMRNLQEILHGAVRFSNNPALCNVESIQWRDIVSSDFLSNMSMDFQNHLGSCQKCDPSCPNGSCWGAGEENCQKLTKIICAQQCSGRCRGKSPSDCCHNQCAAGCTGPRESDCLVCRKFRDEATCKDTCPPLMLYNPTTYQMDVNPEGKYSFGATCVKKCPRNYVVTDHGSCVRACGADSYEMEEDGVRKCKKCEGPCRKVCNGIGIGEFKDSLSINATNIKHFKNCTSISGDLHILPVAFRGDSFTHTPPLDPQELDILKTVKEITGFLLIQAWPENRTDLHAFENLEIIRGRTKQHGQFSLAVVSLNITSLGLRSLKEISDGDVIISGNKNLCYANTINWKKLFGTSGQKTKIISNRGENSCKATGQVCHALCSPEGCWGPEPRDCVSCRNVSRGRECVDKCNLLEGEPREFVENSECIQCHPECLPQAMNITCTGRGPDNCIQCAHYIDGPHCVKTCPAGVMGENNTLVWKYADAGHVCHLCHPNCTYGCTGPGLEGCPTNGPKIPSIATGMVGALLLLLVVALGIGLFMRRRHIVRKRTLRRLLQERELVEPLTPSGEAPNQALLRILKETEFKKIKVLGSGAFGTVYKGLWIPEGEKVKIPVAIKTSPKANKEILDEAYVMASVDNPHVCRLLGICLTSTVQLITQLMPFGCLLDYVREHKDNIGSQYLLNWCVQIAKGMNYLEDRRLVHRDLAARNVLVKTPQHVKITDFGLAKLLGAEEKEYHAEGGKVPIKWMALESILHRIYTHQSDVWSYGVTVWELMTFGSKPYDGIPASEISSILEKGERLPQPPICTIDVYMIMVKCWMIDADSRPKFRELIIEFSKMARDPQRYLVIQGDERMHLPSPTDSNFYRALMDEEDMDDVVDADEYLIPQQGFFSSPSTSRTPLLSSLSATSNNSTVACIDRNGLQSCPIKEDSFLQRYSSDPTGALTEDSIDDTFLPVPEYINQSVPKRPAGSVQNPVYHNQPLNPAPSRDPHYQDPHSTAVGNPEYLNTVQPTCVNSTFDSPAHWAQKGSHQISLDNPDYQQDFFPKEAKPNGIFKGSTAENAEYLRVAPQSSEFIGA
Procedure: as §2, §3, §4

With COc1cc(N2CCC3(CCN(CCCC#Cc4cccc5c4CN(C4CCC(=O)NC4=O)C5=O)CC3)CC2)c(C)cc1Nc1ncc(Br)c(Nc2ccc3ccccc3c2P(C)(C)=O)n1 (centres unmarked) [Example E12] the pIC50 [1] was 7.74, the pIC50 (BaF3 patent) was under 5.40 and the pIC50 (LT) was 7.44. The pIC50 [2] was 6.95, the pIC50 (A431) was under 5.40 and the GI50 (BaF3 (EGFR L858R)) was 37.8 nM. It also gave a pIC50 (DT) of 7.61, a pIC50 (BaF3 (EGFR Del19/C797S)) of 7.79 and a GI50 (BaF3 (EGFR L858R/C797S)) of 106 nM. It also gave a pIC50 (BaF3 (EGFR WT)) of under 5.40 and a GI50 (BaF3 (EGFR Del19)) of 7.8 nM.

Compound COc1cc(N2CCC(N3CCN(CCC#Cc4cccc5c4CN(C4CCC(=O)NC4=O)C5=O)CC3)CC2)c(C2CC2)cc1Nc1ncc(Cl)c(Nc2ccccc2P(C)(C)=O)n1 (centres unmarked) [Example E13] has a pIC50 [1] of 7.71, a pIC50 (BaF3 patent) of under 5.40 and a pIC50 (LT) of 7.78. The pIC50 [2] was 7.18, the pIC50 (A431) was under 5.40 and the GI50 (BaF3 (EGFR L858R)) was 23.5 nM. The pIC50 (DT) was 8.11, the pIC50 (BaF3 (EGFR Del19/C797S)) was 7.69 and the GI50 (BaF3 (EGFR L858R/C797S)) was 128 nM. The pIC50 (BaF3 (EGFR WT)) was under 5.40 and the GI50 (BaF3 (EGFR Del19)) was 6.1 nM.

Compound CCc1cc(Nc2ncc(Cl)c(Nc3ccccc3P(C)(C)=O)n2)c(OC)cc1N1CCC2(CCN(CCCC#Cc3cccc4c3CN(C3CCC(=O)NC3=O)C4=O)CC2)CC1 (centres unmarked) [Example E15] has a pIC50 [1] of 7.97, a pIC50 (BaF3 patent) of under 5.40 and a pIC50 (LT) of 7.68. The pIC50 [2] was 6.92, the pIC50 (A431) was under 5.40 and the GI50 (BaF3 (EGFR L858R)) was 20.1 nM. For the same compound, the pIC50 (DT) was 7.86, the pIC50 (BaF3 (EGFR Del19/C797S)) was 8.04 and the GI50 (BaF3 (EGFR L858R/C797S)) was 54.4 nM. It also gave a pIC50 (BaF3 (EGFR WT)) of under 5.40 and a GI50 (BaF3 (EGFR Del19)) of 5.3 nM.

CCc1cc(Nc2ncc(Cl)c(Nc3ccccc3P(C)(C)=O)n2)c(OC)cc1N1CCC(N2CCN(CCCCCc3ccc4c(c3F)CN(C3CCC(=O)NC3=O)C4=O)CC2)CC1 (centres unmarked) [Example E20] gave a pIC50 [1] of 8.25, a pIC50 (BaF3 patent) of under 5.40 and a pIC50 (LT) of 8.00. It also gave a pIC50 [2] of 7.27, a pIC50 (A431) of 5.90 and a GI50 (BaF3 (EGFR L858R)) of 5.2 nM. It also gave a pIC50 (DT) of 8.15, a pIC50 (BaF3 (EGFR Del19/C797S)) of 8.57 and a GI50 (BaF3 (EGFR L858R/C797S)) of 19.4 nM. For the same compound, the pIC50 (BaF3 (EGFR WT)) was under 5.40 and the GI50 (BaF3 (EGFR Del19)) was 1.7 nM.

Reference: US20240408216A1, “PROTEIN INHIBITOR OR DEGRADING AGENT, PHARMACEUTICAL COMPOSITION CONTAINING SAME AND PHARMACEUTICAL USE” (JING MEDICINE TECHNOLOGY (SHANGHAI) LTD., priority 2021, published 2024)
